Reference: BigSolDB 2.1

Nc1ccccc1N
solubility (mole fraction)
Conditions	in acetonitrile	in ethanol	in methanol	in water
283.15 K	0.0558	0.0139	0.0516	0.00447
285.65 K	0.0595	0.0144	0.0533	0.00467
288.15 K	0.0643	0.0148	0.0554	0.00495
290.65 K	0.0685	0.0154	0.0572	0.00517
293.15 K	0.0752	0.016	0.0596	0.00545
295.65 K	0.0795	0.0165	0.0613	0.00573
298.15 K	0.0858	0.0172	0.0637	0.00608
300.65 K	0.0916	0.0177	0.0658	0.0064
303.15 K	0.0987	0.0184	0.0685	0.00678
305.65 K	0.104	0.019	0.0708	0.00717
308.15 K	0.113	0.0199	0.0732	0.00762
310.65 K	0.12	0.0205	0.0758	0.00803
313.15 K	0.128	0.0213	0.0795	0.00855
315.65 K	0.135	0.0221	0.0828	0.00923
318.15 K	0.143	0.0233	0.0868	0.0102
